Experimental data reported in paper PMC10531915, “A High-Throughput Small-Angle X-ray Scattering Assay to Determine the Conformational Change of Plasminogen” (International Journal of Molecular Sciences, 2023).
Where “and” joins values, the source holds several entries; their conditions need not be identical. Equal values may be shown once. Entries after “also recorded” stand apart in the source; their conditions may differ.

What was measured:
Plg GII = experiment: HTP 96-well SAXS titration: ligand-induced closed-to-open conformational change of Plg GII; assay type: biochemical, human; conditions: for Plg conformational change (efficacy in words) / Rg: HTP SAXS; for Plg conformational change (efficacy in words): 0.5 mg/mL Plg, pH 7.4, 16 °C, MK12 up to 10 mM; for Kopen: concentration of ligand at which 50% of Plg GII is open, 0.5 mg/mL Plg GII, 100 mM sodium phosphate pH 7.4, 5% glycerol, 15–30 min incubation, 16 °C, Rg from SAXS, fit with Hill slope; for Fold (GII/GI) of Kopen: Kopen Plg GII / Kopen Plg GI; for Kopen for GII higher than for GI: Kopen Plg GII versus Plg GI; for Kopen of EACA relative to TXA, GII: EACA versus TXA; for Kopen fold lower than L-lysine: Kopen for L-lysine 7.47 ± 1.12 mM; as to Rg: values in Å
Method: An HTP assay to study the kinetics of Plg conversion from a closed to an open state was established for this work using Plg GII (see Section 4 and Figure 2).
(§1) Figure 2 Overview of the high-throughput (HTP) kinetic studies of Plg conformational change. In this HTP assay, ligand-induced Plg conformational change is set up in a 96-well plate format. (a) Ligands at the study concentration are mixed with Plg and incubated for 30 min. (b,c) The samples flowed past the X-ray beam in a quartz capillary, and scattering images were collected. (d) The resulting 2D scattering profile is averaged and buffer subtracted. (e). Rg values are derived via Guinier analysis (f) and then normalized before plotting against ligand concentration. The plot is fitted to a multi-site binding model, and Kopen, the ligand concentration required to induce 50% open Plg, is derived. Kopen is a kinetic parameter indicative of ligand efficacy or stability of closed conformation.
(§2) EACA, TXA, and L-lysine were purchased from Sigma-Aldrich (St Louis, MO, USA), whereas peptides MK12, NK55, and CK10 were purchased from GL Biochem (Shanghai, China). Solutions of EACA, TXA, and L-lysine (0.5–1.0 M) were prepared in ultrapure water. The peptide ligands are slightly acidic and therefore were dissolved in 0.1 M NH4OH with gentle sonication. MK12 and CK10 were prepared as 20 mM stock solution, and NK55 was prepared as a 625 μM stock solution.
(§3) For the SEC-SAXS experiment, in-line size exclusion chromatography using a WTC-010S5 column (WYATT) with a co-flow setup was used. For the HTP assays, 1 mg/mL protein samples were mixed 1:1 (v/v) with effector solutions to a final volume of 50 μL in a 96-well plate and incubated for 15–30 min before data collection at 16 °C. The final protein concentration for these experiments was 0.5 mg/mL in the assay buffer unless otherwise specified.
For each sample, a matching buffer was used for background scatter subtraction. To minimize the effect of radiation damage, 50 μL samples were flowed past the X-ray beam in a 1.5 mm diameter quartz capillary at 4 μL.s^−1. Then, 15 to 20 2D scattering images were collected on a Pilatus 1M X-ray detector (Dectris, Baden-Daettwil, Swizerland) using 18 × 1 s exposures. The images were averaged, and the background was subtracted using the Scatterbrain software v.2.82 available at the Australian Synchrotron
For each titration series, the Rg values were normalized as follows: Normalized Rg=Rg− minimum Rg/maximum Rg− minimum Rg

[1] = in vivo, up to, no reference given; cited from earlier work
Excerpt: Importantly, our data support the notion that these lysine analogues can potentially outcompete the binding of Plg to its binding proteins Plg-RKT and α2AP (Figure S6) at a therapeutic dosage in vivo (plasma ...

[2] = test system: Plg, mixed glycoform sample; conditions: cited from earlier work
Method: To analyze the transition profiles of Plg recorded from the fully closed to the fully open forms, we fitted the kinetic data as follows: the Rg of Plg GII in 0 mM EACA (32 Å) was defined as closed. The Rg of Plg in 20 m ...

Plg GI = experiment: HTP 96-well SAXS titration: ligand-induced closed-to-open conformational change of Plg GI; assay type: biochemical, human; conditions: for Kopen: concentration of ligand at which 50% of Plg GI is open, 0.5 mg/mL Plg, 100 mM sodium phosphate pH 7.4, 5% glycerol, 15–30 min incubation, 16 °C, Rg from SAXS
Method: as §1
Thus, we also performed kinetics studies on GI and GII to verify this hypothesis using EACA and TXA in the HTP format (Figure S4, Table 1).
as §2, §3
For each sample, a matching buffer was used for background scatter subtraction. To minimize the effect of radiation damage, 50 μL samples were flowed past the X-ray beam in a 1.5 mm diameter quartz capillary at 4 μL.s^−1. […]

Plg = Plg activation by tPA with chromogenic substrate S-2251 (Kactivation); conditions: Kactivation by tPA compared to Kopen; 0.25 μM Plg, 0.01 μM tPA, 1 h, 28 °C, 0.2 mM S-2251, A405 nm
[3] = SEC-SAXS and Guinier/P(r) analysis of Plg conformation; assay type: physicochemical, human; conditions: for Dmax (maximum diameter): P(r); for Rg (radius of gyration): SEC-SAXS, Guinier approximation; as to all read-outs here: values in Å
Method: Plg was isolated and purified from human plasma from Red Cross Blood Bank Australia via three-step purification as previously described. Plg GI and GII were prepared with a TXA gradient (Figure S3). Closed Plg was prepared via exhaustive dialysis of purified protein into the assay buffer (100 mM sodium phosphate pH 7.4, 5% glycerol). Proteins were concentrated to 1 mg/mL in centrifugal filters (Merck Millipore, Burlington, MA, USA). The final filtrate was kept as a solvent blank for SAXS experiments.
Experiments were performed at the Australian Synchrotron SAXS/WAXS beamline using a fixed energy of 12 keV and a camera length of 2.6 m.
as §3
Averaged SAXS data were processed with the ATSAS 2.7.2 software package (EMBL Hamburg, Germany). PRIMUS [33] was used for determining the radius of gyration (Rg) and protein molecular weight via Guinier approximation and the particle distance distribution function P(r) using indirect Fourier transform.

[4] = open conformation, 10 mM EACA (Figure 1)

Molecule: 398NPSAPRELKEQQDSPGNKDFLQSLKGFPRGDKLFGPDLKLVPPMEEDYPQFGSPK452 [NK55, peptide corresponding to the last 55 residues of α2AP]
- Plg conformational change (efficacy in words) (Plg GII; Plg GII): confers a higher efficiency in inducing conformational change
- more efficacious than CK10 (Kopen) (Plg GII; Plg GII, versus CK10): ~ 10 fold
- more efficacious than L-lysine (Kopen) (Plg GII; Plg GII, versus L-lysine): ~ 100 fold
- Kopen (Plg GII): 0.08 ± 0.05 mM

Molecule: 441MEEDYPQFGSPK452 [MK12, peptide corresponding to the last 12 residues of α2AP]
- Plg conformational change (efficacy in words) (Plg GII; Plg GII): did not observe any change in the SAXS profile of Plg GII; also recorded: could not detect any conformational change; also recorded: did not induce a conformational transition even at 10 mM; also recorded: not functional

Molecule: NCCCCCC(=O)O [EACA, ε-aminocaproic acid]
- plasma concentration at therapeutic dosage [1]: ~ 10 mM
- Hill slope (Plg GII; EACA titration 0–20 mM, Plg GII, positive cooperativity): 1.5
- Fold (GII/GI) of Kopen (Plg GII): 1.75
- Kopen for GII higher than for GI (Plg GII): ~ 1.75 fold
- Kopen of EACA relative to TXA, GII (Plg GII; Plg GII): ~ 3 fold
- Kopen of EACA relative to TXA, GII (Plg GII; Plg GII, listed as ε-aminocaproic acid (EACA)): approximately three times greater than that of tranexamic acid (TXA)
- Kopen fold lower than L-lysine (Plg GII; Plg GII): 20 fold
- Kopen (Plg GII): 0.35 mM and 0.35 ± 0.02 mM
- Kopen (previously reported) [2]: 0.45 mM
- Kopen of EACA relative to TXA, GI (Plg GI; Plg GI, EACA versus TXA): ~ 3 fold
- Kopen (Plg GI): 0.20 ± 0.01 mM
- Kactivation higher than Kopen (Plg): > 8 fold

Molecule: NCCCC[C@H](N)C(=O)O [L-lysine]
- Kopen fold relative to CK10 (Plg GII; L-lysine concentration required versus CK10, Plg GII): ~ 10 fold
- Kopen fold relative to EACA (Plg GII; L-lysine concentration required versus EACA, Plg GII): more than 20 fold
- Plg conformational change (efficacy in words) (Plg GII; Plg GII): poor substrate
- Kopen (Plg GII): 7.47 ± 1.12 mM

Molecule: NC[C@H]1CC[C@H](C(=O)O)CC1 [TXA, tranexamic acid]
- plasma concentration at therapeutic dosage [1]: ~ 1 mM
- Fold (GII/GI) of Kopen (Plg GII): 1.76
- Kopen for GII higher than for GI (Plg GII): ~ 1.75 fold
- Plg conformational change (efficacy in words) (Plg GII; Plg GII): most efficacious ligand
- Kopen fold lower than L-lysine (Plg GII; Plg GII): 60 fold
- Kopen (Plg GII): 0.12 ± 0.008 mM
- Kopen (Plg GI): 0.068 ± 0.002 mM
- Kactivation higher than Kopen (Plg): > 3.5 fold

Molecule: C139EQSKLFDSK147 [CK10, synthetic peptide corresponding to a C-terminal peptide of Plg-RKT]
- Plg conformational change (efficacy in words) (Plg GII; Plg GII): highly efficacious
- Kopen (Plg GII): 0.73 ± 0.24 mM

Molecule: Plg GII: human plasminogen glycoform II, purified from human plasma
- conformational stability of closed form (Plg GII; GII versus GI, from Kopen of EACA and TXA, listed as GII): more stable than that of GI
- Rg (Plg GII; 0 mM EACA, defined as closed): 32 Å
- Rg (Plg GII; 20 mM EACA, defined as open): 49 Å
- Dmax (maximum diameter) ([3]; closed conformation (Figure 1)): 105 Å
- Dmax (maximum diameter) [3, 4]: 170 Å
- diameter of approximate spheroidal particle ([3]; Porod plot, closed conformation): ~78 Å
- Rg of closed Plg ([3]; SEC-SAXS comparison of closed GI and GII (Figure 5)): 31.8 ± 0.6 Å
- Rg (radius of gyration) ([3]; closed conformation (Figure 1)): 31.7 ± 0.11 Å
- Rg (radius of gyration) [3, 4]: 48.8 ± 0.9 Å
